Measurements published in patent publication US7704997B1, “Amino-tetrazole analogues and methods of use” (Abbott Laboratories, priority 2004, dated 2010).

Target: T1, P2X7 receptor (Homo sapiens, UniProt Q99572)
T1 construct: host or cells: THP-1 monocytic cells differentiated overnight with LPS (25 ng/ml) and IFN-gamma (10 ng/ml)
T1 sequence (Q99572 1-595): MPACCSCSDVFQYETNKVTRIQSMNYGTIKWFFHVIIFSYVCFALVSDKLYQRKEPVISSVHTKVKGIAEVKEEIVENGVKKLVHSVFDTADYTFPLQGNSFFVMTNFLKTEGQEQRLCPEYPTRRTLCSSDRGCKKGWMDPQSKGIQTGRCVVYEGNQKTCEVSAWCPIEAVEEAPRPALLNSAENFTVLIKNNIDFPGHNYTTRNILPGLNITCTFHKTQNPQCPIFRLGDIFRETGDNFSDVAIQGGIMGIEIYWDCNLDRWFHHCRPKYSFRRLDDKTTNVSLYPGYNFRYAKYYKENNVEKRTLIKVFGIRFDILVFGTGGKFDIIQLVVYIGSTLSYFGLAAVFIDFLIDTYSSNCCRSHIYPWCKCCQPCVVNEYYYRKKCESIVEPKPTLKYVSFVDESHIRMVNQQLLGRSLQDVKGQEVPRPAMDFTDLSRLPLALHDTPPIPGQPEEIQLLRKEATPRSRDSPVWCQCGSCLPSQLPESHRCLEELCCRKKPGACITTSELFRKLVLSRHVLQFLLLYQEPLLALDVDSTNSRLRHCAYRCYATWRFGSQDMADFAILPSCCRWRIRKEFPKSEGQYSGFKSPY
Test: P2X7 mediated pore formation (YO-PRO dye uptake, FLIPR)
Format: cell-based
Details: THP-1 cells
Source text: Tissue Culture: Cells of the THP-1 monocytic cell line (American Type Culture Collection, Rockville, Md.) were maintained in the log phase of growth in RPMI medium containing high glucose and 10% fetal calf serum (Invitrogen, Carlsbad, Calif.) according to established procedures (Humphrey B D and Dubyak G R (1996), Induction of the P2z/P2X7 Nucleotide Receptor and Associated Phospholipase D Activity by Lipopolysaccharide and IFN-γ in the Human THP-1 Monocytic Cell Line. J. Immunology 157:5627-37). Fresh vials of frozen THP-1 cells were initiated for growth every eight weeks. […]
P2X7 Mediated Pore Formation. […] Accordingly, the inhibitory activity of the antagonists of the present invention was determined by their capacity to inhibit the agonist-induced pore formation using the fluorescent dye YO-PRO (MW=629) and Fluorometric Imaging Plate Reader (FLIPR, Molecular Devices, Sunnydale, Calif.). […] The intensity of the fluorescence was captured by the CCD camera every 15 seconds for the first 10 minutes of agonist exposure followed by every 20 seconds for an additional 50 minutes with the data being digitally transferred to an interfaced PC. […] The test compounds were incubated for 10 minutes with the THP-1 cells at room temperature, after which the cells were stimulated with BzATP and fluorescence measured as described above in the […] of the antagonist. […]

EC70 value for agonist activation: 50 µM
Substance: benzoylbenzoic ATP [BzATP]
